Laboratory results from patent publication US20240180900A1, “COMPOUNDS AND METHODS FOR THE TARGETED DEGRADATION OF ANDROGEN RECEPTOR” (Arvinas Operations, Inc., priority 2022, published 2024).
“Also recorded” adds a separate entry of the source.

Assay: Phase 1/2 study in mCRPC participants: safety
[1] = all causality SAEs, Phases 1 and 2 combined, N = 47
[2] = all-causality TEAEs, Phase 1, N = 34

COc1cc(O[C@H]2C(C)(C)[C@H](NC(=O)c3ccc(N4CCC(CN5CCN(c6ccc(C(=O)N[C@H]7CCC(=O)NC7=O)c(F)c6)CC5)CC4)cc3)C2(C)C)ccc1C#N [Compound A, 4-(4-((1-(4-(((1R,3R)-3-(4-cyano-3-methoxyphenoxy)-2,2,4,4-tetramethylcyclobutyl)carbamoyl)phenyl)piperidin-4-yl)methyl)piperazin-1-yl)-N—((S)-2,6-dioxopiperidin-3-yl)-2-fluorobenzamide]
DLTs (Part A (Phase 1 dose escalation), 20 mg to 500 mg QD): No DLTs have been reported
Grade 4 or 5 TRAEs (Phase 1): no Grade 4 or 5 TRAEs
TRAE of Grade 3 aspartate aminotransferase increased (Phase 1): 1
TRAE of Grade 3 fatigue (Phase 1): 1
participants who discontinued study treatment due to a TEAE (Phase 1): No participant
treatment discontinuation due to TRAE (Phase 1): no treatment discontinuation
participants with treatment-emergent SAEs regardless of attribution (Phase 1, of 34): 11 participants
tolerability (Phase 1/2, post-NHA mCRPC patients, 40 mg to 500 mg once daily): well-tolerated; also recorded: well tolerated
treatment-related SAEs (Phase 1 and Phase 2): No treatment-related SAEs were reported
grade of the majority of TRAEs (Phase 1 dose escalation and Phase 2 interim data): Grade 1/2
SAEs (Phase 2): no SAEs were reported
TRAE abdominal pain (Phase 2): 2 (15.4%) participants
TRAE alopecia (Phase 2): 2 (15.4%) participants
TRAE dysgeusia (Phase 2): 2 (15.4%) participants
TRAE nausea (Phase 2): 2 (15.4%) participants
TRAE of Grade 3 abdominal pain (Phase 2): 1
dose reductions due to a TRAE (Phase 2): two
treatment discontinuation due to a TRAE (Phase 2): one
participants who discontinued treatment due to a TEAE (Phase 2, Grade 3 abdominal pain, related): One
participants with TEAEs regardless of attribution (Phases 1 and 2, of 47): 44 participants
participants with TEAEs at least potentially related to Compound A (Phases 1 and 2 combined, of 47): 25 participants
Blood and lymphatic system disorders: Any Grade [1]: 1 participants
Blood and lymphatic system disorders: Grade 3 [1]: 0 participants
Blood and lymphatic system disorders: Grade 4 [1]: 1 (2.1) participants
Blood and lymphatic system disorders: Grade 5 [1]: 0 participants
Brain stem stroke: Any Grade [1]: 1 participants
Brain stem stroke: Grade 3 [1]: 0 participants
Brain stem stroke: Grade 4 [1]: 0 participants
Cystitis noninfective: Any Grade [1]: 1 participants
Cystitis noninfective: Grade 3 [1]: 1 participants
Cystitis noninfective: Grade 4 [1]: 0 participants
Cystitis noninfective: Grade 5 [1]: 0 participants
Diarrhoea: Any Grade [1]: 1 participants
Diarrhoea: Grade 3 [1]: 1 participants
Diarrhoea: Grade 4 [1]: 0 participants
Diarrhoea: Grade 5 [1]: 0 participants
Dyspnoea: Any Grade [1]: 1 participants
Dyspnoea: Grade 3 [1]: 1 participants
Dyspnoea: Grade 4 [1]: 0 participants
Dyspnoea: Grade 5 [1]: 0 participants
Febrile neutropenia: Any Grade [1]: 1 participants
Febrile neutropenia: Grade 3 [1]: 0 participants
Febrile neutropenia: Grade 5 [1]: 0 participants
Gastrointestinal disorders: Any Grade [1]: 1 participants
Gastrointestinal disorders: Grade 3 [1]: 1 participants
Gastrointestinal disorders: Grade 4 [1]: 0 participants
Gastrointestinal disorders: Grade 5 [1]: 0 participants
Grade 2 lethargy (SAE) [1]: one
Haematuria: Any Grade [1]: 1 participants
Haematuria: Grade 3 [1]: 1 participants
Haematuria: Grade 4 [1]: 0 participants
Haematuria: Grade 5 [1]: 0 participants
Hypoxia: Any Grade [1]: 1 participants
Hypoxia: Grade 3 [1]: 1 participants
Hypoxia: Grade 4 [1]: 0 participants
Hypoxia: Grade 5 [1]: 0 participants
Infections and infestations: Any Grade [1]: 2 participants
Infections and infestations: Grade 3 [1]: 2 participants
Infections and infestations: Grade 4 [1]: 0 participants
Infections and infestations: Grade 5 [1]: 0 participants
Lethargy: Any Grade [1]: 1 participants
Lethargy: Grade 3 [1]: 0 participants
Lethargy: Grade 4 [1]: 0 participants
Lethargy: Grade 5 [1]: 0 participants
Nervous system disorders: Any Grade [1]: 4 participants
Nervous system disorders: Grade 3 [1]: 2 participants
Nervous system disorders: Grade 4 [1]: 0 participants
Nervous system disorders: Grade 5 [1]: 1 (2.1) participants
Participants with any serious TEAEs: Any Grade [1]: 11 participants
Participants with any serious TEAEs: Grade 3 [1]: 8 participants
Participants with any serious TEAEs: Grade 4 [1]: 1 (2.1) participants
Participants with any serious TEAEs: Grade 5 [1]: 1 (2.1) participants
Pneumonia: Any Grade [1]: 1 participants
Pneumonia: Grade 3 [1]: 1 participants
Pneumonia: Grade 4 [1]: 0 participants
Pneumonia: Grade 5 [1]: 0 participants
Renal and urinary disorders: Any Grade [1]: 3 participants
Renal and urinary disorders: Grade 3 [1]: 3 participants
Renal and urinary disorders: Grade 4 [1]: 0 participants
Renal and urinary disorders: Grade 5 [1]: 0 participants
Respiratory, thoracic and mediastinal disorders: Any Grade [1]: 2 participants
Respiratory, thoracic and mediastinal disorders: Grade 3 [1]: 2 participants
Respiratory, thoracic and mediastinal disorders: Grade 4 [1]: 0 participants
Respiratory, thoracic and mediastinal disorders: Grade 5 [1]: 0 participants
Soft tissue infection: Any Grade [1]: 1 participants
Soft tissue infection: Grade 3 [1]: 1 participants
Soft tissue infection: Grade 4 [1]: 0 participants
Soft tissue infection: Grade 5 [1]: 0 participants
Spinal cord compression: Any Grade [1]: 1 participants
Spinal cord compression: Grade 3 [1]: 1 participants
Spinal cord compression: Grade 4 [1]: 0 participants
Spinal cord compression: Grade 5 [1]: 0 participants
Tremor: Any Grade [1]: 1 participants
Tremor: Grade 3 [1]: 1 participants
Tremor: Grade 4 [1]: 0 participants
Tremor: Grade 5 [1]: 0 participants
Urinary tract obstruction: Any Grade [1]: 1 participants
Urinary tract obstruction: Grade 3 [1]: 1 participants
Urinary tract obstruction: Grade 4 [1]: 0 participants
Urinary tract obstruction: Grade 5 [1]: 0 participants
Alopecia: Any Grade [2]: 4 participants
Alopecia: Grade 3 [2]: 0 participants
Alopecia: Grade 4 [2]: 0 participants
Alopecia: Grade 5 [2]: 0 participants
Anaemia: Any Grade [2]: 6 participants
Anaemia: Grade 3 [2]: 0 participants
Anaemia: Grade 4 [2]: 0 participants
Anaemia: Grade 5 [2]: 0 participants
Aspartate aminotransferase increased: Any Grade [2]: 5 participants
Aspartate aminotransferase increased: Grade 3 [2]: 1 participants
Aspartate aminotransferase increased: Grade 4 [2]: 0 participants
Aspartate aminotransferase increased: Grade 5 [2]: 0 participants
Blood alkaline phosphatase increased: Any Grade [2]: 8 participants
Blood alkaline phosphatase increased: Grade 3 [2]: 0 participants
Blood alkaline phosphatase increased: Grade 4 [2]: 0 participants
Blood alkaline phosphatase increased: Grade 5 [2]: 0 participants
Blood and lymphatic system disorders: Any Grade [2]: 7 participants
Blood and lymphatic system disorders: Grade 3 [2]: 0 participants
Blood and lymphatic system disorders: Grade 4 [2]: 1 participants
Blood and lymphatic system disorders: Grade 5 [2]: 0 participants
Blood creatinine increased: Any Grade [2]: 7 participants
Blood creatinine increased: Grade 3 [2]: 0 participants
Blood creatinine increased: Grade 4 [2]: 0 participants
Blood creatinine increased: Grade 5 [2]: 0 participants
Constipation: Any Grade [2]: 4 participants
Constipation: Grade 3 [2]: 0 participants
Constipation: Grade 4 [2]: 0 participants
Constipation: Grade 5 [2]: 0 participants
Cough: Any Grade [2]: 4 participants
Cough: Grade 3 [2]: 0 participants
Cough: Grade 4 [2]: 0 participants
Cough: Grade 5 [2]: 0 participants
Decreased appetite: Any Grade [2]: 5 participants
Decreased appetite: Grade 3 [2]: 0 participants
Decreased appetite: Grade 4 [2]: 0 participants
Decreased appetite: Grade 5 [2]: 0 participants
Diarrhoea: Any Grade [2]: 7 participants
Diarrhoea: Grade 3 [2]: 2 participants
Diarrhoea: Grade 4 [2]: 0 participants
Diarrhoea: Grade 5 [2]: 0 participants
Dyspnoea: Any Grade [2]: 4 participants
Dyspnoea: Grade 3 [2]: 1 participants
Dyspnoea: Grade 4 [2]: 0 participants
Dyspnoea: Grade 5 [2]: 0 participants
Fatigue: Any Grade [2]: 12 participants
Fatigue: Grade 3 [2]: 1 participants
Fatigue: Grade 4 [2]: 0 participants
